Key:
Type in all cases: in vivo
[1] = system: barnyardgrass (Echinochloa crus-galli); assay: Test A pre-/postemergence: barnyardgrass
Procedure, shortened: (§1)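 Whole-plant greenhouse assay in loam/sand. Preemergence directed soil spray plus simultaneous postemergence spray (one- to two-leaf stage, 2–10 cm). Rated visually ~10 days later, 0 = no effect, 100 = complete control.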

[2] = system: crabgrass, large (large crabgrass, Digitaria sanguinalis); assay: Test A pre-/postemergence: crabgrass, large
Procedure, shortened: as §1

[3] = system: foxtail, giant (giant foxtail, Setaria faberii); assay: Test A pre-/postemergence: foxtail, giant
Procedure, shortened: as §1

[4] = system: morningglory (Ipomoea spp.); assay: Test A pre-/postemergence: morningglory
Procedure, shortened: as §1

[5] = system: pigweed (Amaranthus retroflexus); assay: Test A pre-/postemergence: pigweed
Procedure, shortened: as §1

[6] = system: velvetleaf (Abutilon theophrasti); assay: Test A pre-/postemergence: velvetleaf
Procedure, shortened: as §1

[7] = system: wheat (Triticum aestivum); assay: Test A pre-/postemergence: wheat
Procedure, shortened: as §1

corn (Zea mays) = assay: Test A pre-/postemergence: corn
Procedure, shortened: as §1

rice (Oryza sativa) = assay: Test B flooded paddy: rice; details: Flood, applied to paddy water at 2-leaf stage, visually evaluated after 13 to 15 days
Procedure, shortened: (§2)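 Response scored visually, 0–100 relative to controls, 13–15 days after the compound was applied into paddy water; plants were at the 2-leaf stage in pots kept flooded to 3 cm.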

[8] = system: sedge, umbrella (small-flower umbrella sedge Cyperus difformis); assay: Test B flooded paddy: sedge, umbrella; details: Flood, applied to paddy water at 2-leaf stage, visually evaluated after 13 to 15 days
Procedure, shortened: as §2

[9] = system: ducksalad (Heteranthera limosa); assay: Test B flooded paddy: ducksalad; details: Flood, applied to paddy water at 2-leaf stage, visually evaluated after 13 to 15 days
Procedure, shortened: as §2

[10] = system: barnyardgrass (Echinochloa crus-galli); assay: Test B flooded paddy: barnyardgrass; details: Flood, applied to paddy water at 2-leaf stage, visually evaluated after 13 to 15 days
Procedure, shortened: as §2

[11] = Postemergence, 125 g ai/ha, 0 to 100 scale, 0 is no effect, 100 is complete control
[12] = Postemergence, 500 g ai/ha, visual rating on 0 to 100 scale (0 no effect, 100 complete control), approximately ten days
[13] = Preemergence, 125 g ai/ha, 0 to 100 scale where 0 is no effect and 100 is complete control
[14] = Preemergence, 500 g ai/ha, 0 to 100 scale (0 no effect, 100 complete control)
[15] = Postemergence, 500 g ai/ha, 0 to 100 scale, 0 is no effect, 100 is complete control

| SMILES | Plant response rating, Barnyardgrass [1, 11] | Plant response rating, Barnyardgrass [1, 13] | Plant response rating, Barnyardgrass [1, 14] | Plant response rating, Crabgrass, Large [2, 11] | Plant response rating, Crabgrass, Large [2, 13] | Plant response rating, Crabgrass, Large [2, 14] | Plant response rating, Foxtail, Giant [3, 11] | Plant response rating, Foxtail, Giant [3, 13] | Plant response rating, Foxtail, Giant [3, 14] | Plant response rating, Morningglory [4, 11] | Plant response rating, Pigweed [5, 11] | Plant response rating, Pigweed [5, 13] | Plant response rating, Pigweed [5, 14] | Plant response rating, Velvetleaf [6, 11] | Plant response rating, Velvetleaf [6, 13] | Plant response rating, Velvetleaf [6, 14] | Plant response rating, Wheat [7, 11] | Plant response rating, Wheat [7, 13] | Plant response rating, Wheat [7, 14] | Plant response rating, Corn (corn (Zea mays); [11]) | further results |
| --- | --- | --- | --- | --- | --- | --- | --- | --- | --- | --- | --- | --- | --- | --- | --- | --- | --- | --- | --- | --- | --- |
| O=C(c1ccnc(C(F)(F)F)c1)c1nn(-c2ccc(F)cc2)nc1F [Compound 158] | 0 | 0 | 0 | 0 | 0 | 0 | 0 | 0 | 0 | 0 | 10 | 0 | 0 | 0 | 0 | 0 | 0 | 0 | 0 | 0 | Barnyardgrass plant response rating [1, 12]: 0; Crabgrass, Large plant response rating [2, 12]: 20; Foxtail, Giant plant response rating [3, 12]: 0; Morningglory plant response rating [4, 12]: 10; Plant response rating, Morningglory [4, 13]: 0; Plant response rating, Morningglory [4, 14]: 0; Pigweed plant response rating [5, 12]: 80; Velvetleaf plant response rating [6, 12]: 0; Wheat plant response rating [7, 12]: 0; Corn plant response rating (corn (Zea mays); [12]): 20; Plant response rating, Corn (corn (Zea mays); [13]): 0; Plant response rating, Corn (corn (Zea mays); [14]): 0; Plant response rating, Rice (0 to 100 scale, 0 is no effect, 100 is complete control) (rice (Oryza sativa); 250 g ai/ha): 75; Plant response rating, Sedge, Umbrella (0 to 100 scale, 0 is no effect, 100 is complete control) ([8]; 250 g ai/ha): 0; Plant response rating, Ducksalad (0 to 100 scale, 0 is no effect, 100 is complete control) ([9]; 250 g ai/ha): 0; Plant response rating, Barnyardgrass (0 to 100 scale, 0 is no effect, 100 is complete control) ([10]; 250 g ai/ha): 0 |
| Fc1ccc(-n2nc(F)c(Cc3ccnc(C(F)(F)F)c3)n2)cc1 [Compound 159] | 50 | 10 | 80 | 20 | 10 | 30 | 40 | 40 | 90 | 60 | 90 | 70 | 90 | 20 | 0 | 0 | 0 | 0 | 0 | 20 | Barnyardgrass plant response rating [1, 12]: 80; Crabgrass, Large plant response rating [2, 12]: 40; Foxtail, Giant plant response rating [3, 12]: 90; Morningglory plant response rating [4, 12]: 90; Plant response rating, Morningglory [4, 13]: 0; Plant response rating, Morningglory [4, 14]: 0; Pigweed plant response rating [5, 12]: 100; Velvetleaf plant response rating [6, 12]: 60; Wheat plant response rating [7, 12]: 30; Corn plant response rating (corn (Zea mays); [12]): 30; Plant response rating, Corn (corn (Zea mays); [13]): 0; Plant response rating, Corn (corn (Zea mays); [14]): 0; Plant response rating, Rice (0 to 100 scale, 0 is no effect, 100 is complete control) (rice (Oryza sativa); 250 g ai/ha): 30; Plant response rating, Sedge, Umbrella (0 to 100 scale, 0 is no effect, 100 is complete control) ([8]; 250 g ai/ha): 60; Plant response rating, Ducksalad (0 to 100 scale, 0 is no effect, 100 is complete control) ([9]; 250 g ai/ha): 20; Plant response rating, Barnyardgrass (0 to 100 scale, 0 is no effect, 100 is complete control) ([10]; 250 g ai/ha): 30 |
| COCc1nn(-c2ccc(F)cc2)nc1Oc1ccnc(C(F)(F)F)c1 [Compound 161] | 30 | 20 | 60 | 70 | 100 | 100 | 60 | 100 | 100 | 30 | 100 | 100 | 100 | 40 | 0 | 50 | 10 | 0 | 10 | 10 | Barnyardgrass plant response rating [1, 12]: 70; Crabgrass, Large plant response rating [2, 12]: 90; Foxtail, Giant plant response rating [3, 12]: 90; Morningglory plant response rating [4, 12]: 50; Plant response rating, Morningglory [4, 13]: 10; Plant response rating, Morningglory [4, 14]: 10; Pigweed plant response rating [5, 12]: 100; Velvetleaf plant response rating [6, 12]: 80; Wheat plant response rating [7, 12]: 30; Corn plant response rating (corn (Zea mays); [12]): 30; Plant response rating, Corn (corn (Zea mays); [13]): 10; Plant response rating, Corn (corn (Zea mays); [14]): 10; Plant response rating, Rice (0 to 100 scale, 0 is no effect, 100 is complete control) (rice (Oryza sativa); 125 g ai/ha): 20; Plant response rating, Sedge, Umbrella (0 to 100 scale, 0 is no effect, 100 is complete control) ([8]; 125 g ai/ha): 80; Plant response rating, Ducksalad (0 to 100 scale, 0 is no effect, 100 is complete control) ([9]; 125 g ai/ha): 0; Plant response rating, Barnyardgrass (0 to 100 scale, 0 is no effect, 100 is complete control) ([10]; 125 g ai/ha): 0 |
| COc1nn(-c2ccc(F)cc2F)nc1Cc1ccnc(C(F)(F)F)c1 [Compound 165] | 40 | 30 | 100 | 70 | 100 | 100 | 60 | 90 | 100 | 60 | 100 | 100 | 100 | 40 | 0 | 10 | 20 | 0 | 0 | 20 | Barnyardgrass plant response rating [1, 15]: 90; Crabgrass, Large plant response rating [2, 15]: 90; Foxtail, Giant plant response rating [3, 15]: 90; Morningglory plant response rating [4, 15]: 80; Pigweed plant response rating [5, 15]: 100; Velvetleaf plant response rating [6, 15]: 70; Wheat plant response rating [7, 15]: 30; Corn plant response rating (corn (Zea mays); [15]): 30; Plant response rating, Corn (corn (Zea mays); [13]): 0; Plant response rating, Corn (corn (Zea mays); [14]): 10; Plant response rating, Rice (0 to 100 scale, 0 is no effect, 100 is complete control) (rice (Oryza sativa); 125 g ai/ha): 20; Plant response rating, Sedge, Umbrella (0 to 100 scale, 0 is no effect, 100 is complete control) ([8]; 125 g ai/ha): 70; Plant response rating, Ducksalad (0 to 100 scale, 0 is no effect, 100 is complete control) ([9]; 125 g ai/ha): 40; Plant response rating, Barnyardgrass (0 to 100 scale, 0 is no effect, 100 is complete control) ([10]; 125 g ai/ha): 10 |

Reference: patent publication US9302999B2, “Substituted triazoles as herbicides” (E. I. DU PONT DE NEMOURS AND COMPANY, priority 2012, dated 2016)
